Where “and” joins values, the source holds several entries; their conditions need not be identical. Equal entries are not always repeated. Where two headings read alike, the source gives them in different places.
Key:
Ac6-acylase = Ac6-acylase (Rhodococcus (subgen. Prescottella) equi, UniProt A0A3S5Y3Z2); experiment: Activity of the Ac6-acylase in the presence of potential enzyme activators and inhibitors; format: biochemical; settings: for activity at 10000 µM: read-out: Relative activity (%)
Procedure: After an incubation at 30° C. for a time period allowing the liberation of 0 to 3 mM of 1-phenylethylamine 400 μl of ice cooled acetone are added to stop the reaction. The tube is mixed vigorously, put on ice for about 15 min., and then is centrifuged for 4 min at 11500 rpm in a Biofuge 15 (Heraeus Sepatech, Osterode Germany). The supernatant is subjected to quantitative HPLC analysis. If activity assays contain crude extracts of cells grown in the presence of N-acetyl-1-phenylethylamine a control assay without substrate has to be prepared in parallel in order to determine the 1-phenylethylamine content of the crude extract. For HPLC analysis sample volumes of 20 μl are injected onto a RP-8 column (LiChroCART 125-4, LiChrospher 100 RP-8 ([…]), guard column: LiChroCART 4-4, LiChrospher 100 RP-8 ([…]), Merck Co., Darmstadt Germany). The following gradient with a flow rate of 1.25 ml/min. is applied for the separation of the substrate N-acetyl-1-phenylethylamine and the product 1-phenylethylamine:
One unit (U) of acylase activity is defined as the amount of enzyme catalyzing the liberation of 1 μmol of 1-phenylethylamine per minute. The acylase concentration in the samples is calculated according to the following formula: […]
In the presence of various potential enzyme activators and inhibitors activity assays are performed according to the scheme given in example 1 by applying the following conditions and final concentrations:
(S)-N-acetyl-1-phenylethylamine 20 mM
Purified acylase from example 4 c 0.02 U/ml
Incubation time 120 min.

[1] = tested on: Rhodococcus globerulus K1/1 acylase; format: biochemical
Procedure: The standard assay for K1/1-acylase activity used for monitoring the purification and for the enzymological characterization is performed by mixing 20 μl of an enzyme sample with 380 μl of a 5.55 mM solution of (S)-2-acetylamino-1-phenyl-4-pentene in 69 mM potassium phosphate buffer, pH 7, and incubating at 23° C. The dilution of the acylase and the incubation time are chosen so that not more than 1.3 mM of product are formed. The reaction is stopped by addition of 800 μl ice cold methanol. After centrifugation for 4 min at 11500 rpm in a Biofuge 15 (Heraeus Sepatech, Osterode, Germany) the supernatant is subjected to quantitative HPLC analysis (see example 1).
27.1. Activity of the Rhodococcus globerulus K1/1 acylase in the presence of potential enzyme activators and inhibitors: […]

AcR5b-acylase = experiment: Activity of the AcR5b-acylase in the presence of potential enzyme activators and inhibitors; format: biochemical, Arthrobacter aurescens AcR5b; settings: for Relative activity (%), EDTA reactivation: preincubated with 1 mM metal cation, then 10 mM EDTA for 30 min
Procedure: 40 μl of the concentrated enzyme solution from example 4d) are mixed with 360 μl of 1 and 10 mM solutions of the potential activators/inhibitors in 100 mM Tris-HCl buffer, pH 8, and incubated at room temperature for 30 min. These preincubated acylase solutions are used as the enzyme source for activity assays in the presence of the activator/inhibitor (see example 8) in the concentration used for the preincubation. The incubation time is 12 min. For the EDTA reactivation the acylase is first preincubated with the metal cation at 1 mM concentration (see above). After adding EDTA to a final concentration of 10 mM in form of a 110 mM solution in 100 mM Tris-HCl, pH 8, the acylase is preincubated a second time for 30 min., before the standard activity assay is performed.

[2] = tested on: acylase from Arthrobacter aurescens Ac5R; experiment: Enzymatic hydrolysis of racemic amides with highly purified acylase from Arthrobacter aurescens Ac5R; format: biochemical; settings: for Selectivity E: enantioselectivity of the hydrolysis; for e.e. (R)-Amine: formed amine, analysed as acetamide by chiral HPLC; for e.e. (S)-Amide: unconverted amide, chiral HPLC
Procedure: (§1) To 10 ml of a 20 mM solution of each of the racemic amides shown below 1 in 0.1 M phosphate buffer pH 7.0, 5 ml (1.3 units) of the enzyme is added and the solutions are shaken at 100 rpm and 30° C. [drawing 10] [drawing 11]
(§2) When the conversion reaches about 50% (checked by HPLC) the solutions are acidified to pH 2 by adding 1 N HCl and extracted three times with dichloromethane to obtain the unconverted amides. The aqueous layers are neutralized with 1 N NaOH solution and extracted again three times with dichloromethane to recover the formed amines. Both organic phases are dried with MgSO4, filtered and the solvent is distilled off. The amides are used directly for optical purity determinations (HPLC), whereas the obtained amines are converted to the acetamides by adding 100 μl triethylamine and 100 μl acetic anhydride to each sample and then analyzed for the optical purity by "chiral" HPLC.

[3] = target: T1, acylase from Rhodococcus equi Ac6 (Rhodococcus (subgen. Prescottella) equi, UniProt A0A3S5Y3Z2); experiment: Enzymatic hydrolysis of racemic amides with partially purified acylase from Rhodococcus equi Ac6; format: biochemical; parameters: e.e. (R)-Amide: unit not given here; settings: for Selectivity E: enantioselectivity of the hydrolysis; for e.e. (S)-Amine: formed amine, analysed as acetamide; for e.e. (R)-Amide: unconverted amide, chiral HPLC
T1 construct: N-terminus […]
T1 sequence (A0A3S5Y3Z2 1-487): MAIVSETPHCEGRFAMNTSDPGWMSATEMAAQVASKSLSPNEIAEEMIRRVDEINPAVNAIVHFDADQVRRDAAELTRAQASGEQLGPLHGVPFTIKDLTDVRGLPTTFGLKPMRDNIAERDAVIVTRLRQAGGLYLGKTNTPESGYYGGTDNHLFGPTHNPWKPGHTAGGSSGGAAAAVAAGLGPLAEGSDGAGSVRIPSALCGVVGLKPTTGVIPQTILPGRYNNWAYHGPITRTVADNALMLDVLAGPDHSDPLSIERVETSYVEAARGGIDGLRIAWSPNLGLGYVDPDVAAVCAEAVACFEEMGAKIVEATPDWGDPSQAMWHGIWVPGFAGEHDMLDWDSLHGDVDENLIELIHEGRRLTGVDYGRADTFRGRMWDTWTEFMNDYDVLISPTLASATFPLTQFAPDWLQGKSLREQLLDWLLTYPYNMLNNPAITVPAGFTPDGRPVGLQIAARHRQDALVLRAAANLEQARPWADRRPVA
Procedure: as §1, §2
The experiments are carried out in the same manner as described in example 22.

[4] = compound 1 mM, 20 mM (S)-N-acetyl-1-phenylethylamine, Tris-HCl pH 8, 120 min, none = 100
[5] = compound 10 mM, values in brackets: precipitates formed during the assay, none = 100
[6] = compound 1 mM, 30 min preincubation, Tris-HCl pH 8, none = 100
[7] = compound 10 mM, 30 min preincubation, values printed in brackets: precipitates formed, none = 100

Sequence of Ac6-acylase (A0A3S5Y3Z2 entry or part of it): as the sequence (A0A3S5Y3Z2 1-487) above

SMILES	Relative activity (%) (Ac6-acylase; [4])	Relative activity (%) ([1]; compound 1 mM, none = 100)	Relative activity (%) ([1]; compound 10 mM, none = 100)	Relative activity (%) (AcR5b-acylase; [6])	Relative activity (%) (AcR5b-acylase; [7])	Relative activity (%) (Ac6-acylase; [5])	further results
O[C@H](CS)[C@H](O)CS (racemic) [Dithiothreitol]	103%	112%	77%	35%	5.4%		activity at 10000 µM (Ac6-acylase; [5]): 100%
CC(=O)NC(C)c1cccc(C#N)c1 (racemic) [Substrate 2a]							Selectivity E [2]: 60; e.e. (R)-Amine [2]: 91.5; e.e. (S)-Amide [2]: 82.4; Selectivity E [3]: > 500; e.e. (S)-Amine [3]: > 99.9; e.e. (R)-Amide [3]: 85.5
CC(=O)NC(C)c1ccc(C#N)cc1 (racemic) [Substrate 3a]							Selectivity E [2]: 320; e.e. (R)-Amine [2]: 95.0; e.e. (S)-Amide [2]: > 99.9; Selectivity E [3]: > 500; e.e. (S)-Amine [3]: > 99.9; e.e. (R)-Amide [3]: 97.4
CC(=O)NC1CCc2ccccc21 (racemic) [Substrate 5a]							Selectivity E [2]: 180; e.e. (R)-Amine [2]: 95.7; e.e. (S)-Amide [2]: 96.1; Selectivity E [3]: 65; e.e. (S)-Amine [3]: 88.2; e.e. (R)-Amide [3]: 96.7
CC(=O)NC(C)c1ccc2ccccc2c1 (racemic) [Substrate 7a]							Selectivity E [3]: 88; e.e. (S)-Amine [3]: 97.4; e.e. (R)-Amide [3]: 16.4
CC(=O)NC(C)c1ccc2c(c1)OCO2 (racemic) [Substrate 8a]							Selectivity E [2]: 60; e.e. (R)-Amine [2]: 91.5; e.e. (S)-Amide [2]: 82.4; Selectivity E [3]: 280; e.e. (S)-Amine [3]: 97.8; e.e. (R)-Amide [3]: 90.1
CC(=O)NC(C)CCc1ccccc1 (racemic) [Substrate 9a]							Selectivity E [3]: 230; e.e. (S)-Amine [3]: 92.1; e.e. (R)-Amide [3]: > 99.9
[Ba+2].[Cl-].[Cl-] [BaCl2]	95%			92%	89%	99%	
[Ca+2].[Cl-].[Cl-] [CaCl2]	90%	89%	85%	92%	88%	83%	
[Cl][Cd][Cl] [CdCl2]	85%			5%	0%	38%	Relative activity (%), EDTA reactivation (AcR5b-acylase): 79%
O=C(O)CC(O)(CC(=O)O)C(=O)O [Citrate]	106%	113%	133%	122%	100%		activity at 10000 µM (Ac6-acylase; [5]): 91%
[Cl-].[Cl-].[Co+2] [CoCl2]	69%	97%	86%	26%	15%	83%	Relative activity (%), EDTA reactivation (AcR5b-acylase): 91%
[Cl][Cu][Cl] [CuCl2]	88%	66%	50%	50%	0%	41%	Relative activity (%), EDTA reactivation (AcR5b-acylase): 86%
N[C@@H]1CONC1=O [D-cycloserine]		104%	96%				
O=C(O)CN(CCN(CC(=O)O)CC(=O)O)CC(=O)O [EDTA]							Relative activity (%) (Ac6-acylase; pH 8): 102; activity at 10000 µM (Ac6-acylase): 104%; Relative activity (%) [1]: 99 and 89; Relative activity (%) (AcR5b-acylase): 121; Relative activity (%) (AcR5b-acylase; pH 8): 119
[Cl][Fe]([Cl])[Cl] [FeCl3]	101%	101%	37%	121%	132%	92%	
N[C@@H](CCC(=O)N[C@@H](CS)C(=O)NCC(=O)O)C(=O)O [Glutathion, reduced]							Relative activity (%) (Ac6-acylase; pH 8): 106; activity at 10000 µM (Ac6-acylase): 102%; Relative activity (%) [1]: 104 and 93; Relative activity (%) (AcR5b-acylase): 112; Relative activity (%) (AcR5b-acylase; pH 8): 113
NC(=O)CI [Iodoacetamide]	87%	104%	67%	96%	29%		activity at 10000 µM (Ac6-acylase; [5]): 32%
OCCS [Mercaptoethanol]	104%	106%	101%	115%	69%		activity at 10000 µM (Ac6-acylase; [5]): 108%
[Cl-].[Cl-].[Mg+2] [MgCl2]	90%	101%	87%	103%	93%	99%	
[Cl][Mn][Cl] [MnCl2]	87%	94%	83%	99%	60%	87%	
[Cl][Ni][Cl] [NiCl2]	40%	87%	80%	14%	0%	10%	Relative activity (%), EDTA reactivation (AcR5b-acylase): 85%
[Cl][Pb][Cl] [PbCl2]	95%			79%	9%	99%	Relative activity (%), EDTA reactivation (AcR5b-acylase): 102%
O=S(=O)(F)Cc1ccccc1 [Phenylmethyl-sulfonyl fluoride]	0%			44%		0%	Relative activity (%) (Ac6-acylase; compound 0.01 mM): 17%; Relative activity (%) (Ac6-acylase; compound 0.1 mM): 4.8%; Relative activity (%) ([1]; compound 0.01 mM): 0%; Relative activity (%) ([1]; compound 0.1 mM): 0%
[Cl][V]([Cl])[Cl] [VCl3]	89%			96%	106%	94%	
[Cl-].[Cl-].[Zn+2] [ZnCl2]	68%	66%	0%	< 1.5%	0%	47%	Relative activity (%), EDTA reactivation (AcR5b-acylase): 75%
O=C(O)c1cc[c]([Hg+])cc1.[OH-] [p-hydroxy-mercuribenzoate]		89%	96%				
